The subject of one data set is CD4^+ T lymphocytes. In words: Proliferation of anti-CD3 activated CD4+ T lymphocytes. Format: cell-based, BALB/c mouse. From the text: (§1) Growth curves of lymph node T cells depleted of antigen-presenting cells (FIG. 17A) with and without 10^-6 M retinol at 2×10^5 and 5×10^4 cells/well. (FIG. 17B) Dose-responses elicited by different retinoids in cultures of lymph node T cells depleted of antigen-presenting cells. Also shown are the growth curves of CD4^+ (FIG. 17C) and CD8^+ T lymphocytes (FIG. 17D) in the presence of either retinol, 14HRR, human serum or in their absence.
(§2) T lymphocytes, purified as described, 5×10^4 /well, were activated with immobilized anti-CD3 antibody in ITLB medium. The indicated amounts of retinoids or human serum were added at initiation of cultures. […] 14HRR was added every 12 hours. DNA synthesis was measured by a 4 hour pulse with tritiated thymidine. SDs were ≤17%.
(§3) Mature T cells were obtained from pooled intestinal, axillary, inguinal and submandibular lymph nodes of 4 to 10-week-old BALB/c mice. To fractionate cells into CD4 and CD8 subsets and at the same time remove APC, a combination of adherence and complement lysis was used as follows:
(§4) The cell suspension in a volume of 2 ml was applied to a nylon wool column (40) (0.6 g of washed nylon fibers in the barrel of a 10 ml syringe) and incubated at 37° C. for 40 min. […] The success of the enrichment procedures was monitored cytofluorimetrically using FITC-conjugated anti-CD8 and PE-conjugated anti-CD4. […]

Another data set relates to B lymphocytes. Conditions: cited from earlier work.
The subject of another data set is 5/2 cells. As to the kind of experiment: Growth-supporting activity on 5/2 cells in serum-free ITLB medium. Format: cell-based, human. Here is the method:
The assay was done in 96-well microtiter plates in a final volume of 200 ul/well. The cells were cultured for 72 hours and cell growth determined by [^3 H] thymidine (0.8 μCi/well)labeling for the last 16 hours. Retinoids were added at the indicated concentrations at the initiation of culture and every 24 hours thereafter.
5/2 cells were grown in the absence of retinol in a medium containing the basic RPMI 1640 amino acid/salt mixture, insulin (5 μg/ml), transferrin (5 μg/ml), albumin (0.1%) and linoleic acid (10^-6 M) (ITLB). […] The dose-response curve shown in FIG. 26 indicates an effective concentration of 10^-7 M.

For a further data set, the system named is lymph node T cells. In words: Proliferation of anti-CD3 activated lymph node T cells. Format: cell-based, BALB/c mouse.
From the text: as §1, §2, §3, §4
Cells were cultured in serum-free medium, referred to as ITLB, containing RPMI 1640 supplemented with 8×10^-7 M insulin (5 μg/ml), 7×10^-8 M transferrin (5 μg/ml), 2×10^-6 M linoleic acid, 2×10^-6 M delipidated BSA (0.12 mg/ml), 2 mM L-glutamine, 1 mM sodium pyruvate and antibiotics. […] The optimal concentration for stimulation of T cells was determined for each batch of anti-CD3 mAb and Con A. The optimal range of Con A was particularly narrow in serum-free medium (0.5-0.2 μg/ml) and varied with the cell density used. […] Cellular proliferation was determined by [^3 H] thymidine uptake (0.5 uCi/well; New England Nuclear, Boston, Mass.) after the incubation times indicated for each experiment with a 4 hour labeling pulse. […]

The next data set has as its system SK3886. As to the kind of experiment: Retinol metabolism, SK3886. Format: in vitro ADME. Here is the method: (§5) Legend: 2.5×10^6 cells were grown overnight in 5 ml RPMI/10% FBS. The FBS was preincubated at room temperature with 14.4 uCi [^3 H] retinol (NEN) for 4h. The cell pellet was washed twice with PBS. The retinoid were extracted according to MClean et al. 90 and separated on an analytical c18 reverse phase column according to FIG. 7. The DPM were determined using an on-line scintillation counter.

Another data set concerns N-tera2. In words: Retinol metabolism, N-tera2. Format: in vitro ADME, human. Here is the method:
as §5

Another data set deals with SKL3. In words: Retinol metabolism, SKL3. Format: in vitro ADME, human. As to the method: as §5
In another data set the test system is 5/2. In words: Retinol metabolism, 5/2. It counts as in vitro ADME, human. Here is the method:
as §5

A further data set deals with EL-4. As to the kind of experiment: Retinol metabolism, EL-4. Format: in vitro ADME, mouse. Here is the method: as §5
Data set [1] relates to lymphoblastoid cells (LCL). Conditions: cited from earlier work.
Another data set has as its system Ket. In words: Retinol metabolism, Ket. Format: in vitro ADME, human. Here is the method: as §5
The next data set has as its system P388D.1. As to the kind of experiment: Retinol metabolism, P388D.1. Format: in vitro ADME, mouse. As to the method: as §5
For data set [2] the following is noted: cited from earlier work.
Another data set deals with ERLD. As to the kind of experiment: Retinol metabolism, ERLD. Format: in vitro ADME. As to the method: as §5
A further data set concerns RPMI. As to the kind of experiment: Retinol metabolism, RPMI (Leukemia ALL). It counts as in vitro ADME. Here is the method:
as §5

Like-named read-outs stand apart in the source and are kept apart here. A value given as a limit tells only on which side of the number the result lay.

Broadly, the half-life is the time in which the quantity being followed falls by half.

Regarding `CC(C=CC=C(C)C(O)CO)=CC=C1C(C)=CCCC1(C)C` (stereo not drawn) [14HRR, 14-hydroxy-4,14-retro-retinol], the “response of CD4+ subset to anti-CD3” value in the data set on CD4^+ T lymphocytes is “responded to the activating signal”. Besides, in the data set on B lymphocytes, the “difference in active concentration, 14HRR vs retinal” value is 40 fold and the “support of B cell proliferation / response” value is on record as “capable of supporting the proliferation of B cells in the absence of an external supply of retinal”. For the same molecule, in the data set on B lymphocytes (previous analyses with B lymphocytes (ref. 33)), the active concentration is 50 nM. Also, the “restoration of proliferation in absence of retinol” value in the data set on 5/2 cells is on record as “restores the capacity to proliferate”. In addition, the “stimulation of lymph node T cells” value in the data set on lymph node T cells was “effective over the same dose range as observed for thymocytes”.
As for `CC1=C(/C=C/C(C)=C/C=C/C(C)=C/CO)C(C)(C)CCC1` [retinol, all-trans retinol], the “Ester (% of taken up retinol)” value in the data set on SK3886 is recorded as 2%; with N-tera2 it was 97%; with SKL3, 24%; with 5/2, 24%; in the data set with EL-4, 44%; with Ket, 41%. The “Ester (% of taken up retinol)” value was 26% in the data set with P388D.1, 20% in the data set on ERLD and 38% with RPMI. In addition, the “P3 (% of taken up retinol)” value with SK3886 stood at 3%; in the data set with N-tera2, 0.4%; in the data set on SKL3, 2%; in the data set with 5/2, 4%; with EL-4 it was 5%; in the data set on Ket it was 3%. For the same molecule, the “P3 (% of taken up retinol)” value was found to be 0.5% in the data set on P388D.1, 9% with ERLD and 2% in the data set with RPMI. The Total cts. with SK3886 was 4.7 × 10^5 cts; in the data set on N-tera2, 13.5 × 10^5 cts; in the data set on SKL3 it was 1.6 × 10^5 cts; in the data set on 5/2, 5.7 × 10^5 cts; with EL-4 it was 2.8 × 10^5 cts; with Ket it was 4.6 × 10^5 cts. Also, the values for the Total cts. with P388D.1, with ERLD and in the data set with RPMI were 1.4 × 10^5 cts, 2.8 × 10^5 cts and 1.2 × 10^5 cts, respectively. The “support of growth of LCL in serum-free medium” value in data set [1] was “support the growth of LCL in serum-free medium”. For the same molecule, the half-life in data set [2] (serum-free cell culture (ref. 32)) is below 24 h; in data set [2] (serum-free tissue culture medium, estimated (ref. 32)), around 24 h. In the data set with 5/2 cells, the “restoration of proliferation in absence of retinol” value was “restores the capacity to proliferate”.
As for `CC1=C(/C=C/C(C)=C/C=C/C(C)=C/C(=O)O)C(C)(C)CCC1` [all-trans retinoic acid], the “support of growth of LCL in serum-free medium” value in data set [1] was “but not retinoic acid, support the growth of LCL in serum-free medium”. For the same molecule, the “stimulation of lymph node T cells” value in the data set with lymph node T cells was “nearly inert”.
